These are literature values, as cited in patent US20240173301A1, “2-IMINOBIOTIN FOR USE IN THE TREATMENT OF STROKE” (NEUROPHYXIA B.V., priority 2021, published 2024).

Like-named read-outs stand apart in the source and are kept apart here. Where no end group is shown, it is not given here.

The conditions of series [1]: healthy volunteers; preclinical safety; Phase I and II studies in neonates with asphyxia and adults after cardiac arrest.
For series [2] the following is noted: adult human patients after cardiac arrest.
For series [3] the following is noted: in vivo.
For series [4] the following is noted: single dose.

As to `N=C1N[C@H]2[C@H](CS[C@H]2CCCCC(=O)O)N1` [2-IB, 2-iminobiotin], the “concentration range at which 2-IB is most active in vitro” value in the series with neuronal culture is on record as “around 30 ng/ml”. For the same molecule, the safety result in series [1] is on record as “proven to be safe”. Moreover, the “tolerability of eGFR adjusted dose” value in series [2] was “tolerated without clinical drug-related adverse events”. Moreover, in series [3], the “effect on tissue damage after ischemia-reperfusion” value was “prevents (further) tissue damage”.
Regarding YGRKKRRQRRRKLSSIESDV [nerinetide], the values for the clinical outcome in series [4] (alteplase-treated stroke patients) and in series [4] (stroke patients that did not receive alteplase) were “did not show favorable outcomes” and “significant improvement”, respectively.
